According to ChEMBL document CHEMBL2062454, “SAR studies around a series of triazolopyridines as potent and selective PI3Kγ inhibitors” (Bioorg Med Chem Lett, 2012):
≈ marks a conversion by molar mass, not a printed value.

Tests used:
[1] = target: Cytochrome P450 2C19 (Homo sapiens, UniProt P33261); assay: Inhibition of CYP2C19 up to 25 uM; format: ADME
[2] = Thermodynamic solubility of the compound; format: physicochemical; conditions: read-out: Therm_solubility
[3] = tested on: Salmonella typhimurium; assay: Mutagenic activity in Salmonella typhimurium TA98 at 1667 ug/plate in presence of liver S9 fraction; format: toxicity, organism-based; conditions: salmonella enterica subsp. enterica serovar typhimurium
[4] = target: Cytochrome P450 2D6 (Homo sapiens, UniProt P10635); assay: Inhibition of CYP2D6 up to 25 uM; format: ADME
[5] = Half life in rat microsomes; format: ADME, Microsome
[6] = tested on: Mus musculus; assay: Antiarthritic activity in DBA/B10 mouse collagen-induced arthritis model assessed as reduction of clinical score at 10 mg/kg, po administered twice per day for every 12 hrs; format: functional; set-up: scale not given: the % may be the effect or the level left
[7] = target: T1, Cytochrome P450 1A (Homo sapiens, UniProt P04798+P05177); assay: Inhibition of CYP1A up to 25 uM; format: ADME
T1 sequence (P04798 whole entry): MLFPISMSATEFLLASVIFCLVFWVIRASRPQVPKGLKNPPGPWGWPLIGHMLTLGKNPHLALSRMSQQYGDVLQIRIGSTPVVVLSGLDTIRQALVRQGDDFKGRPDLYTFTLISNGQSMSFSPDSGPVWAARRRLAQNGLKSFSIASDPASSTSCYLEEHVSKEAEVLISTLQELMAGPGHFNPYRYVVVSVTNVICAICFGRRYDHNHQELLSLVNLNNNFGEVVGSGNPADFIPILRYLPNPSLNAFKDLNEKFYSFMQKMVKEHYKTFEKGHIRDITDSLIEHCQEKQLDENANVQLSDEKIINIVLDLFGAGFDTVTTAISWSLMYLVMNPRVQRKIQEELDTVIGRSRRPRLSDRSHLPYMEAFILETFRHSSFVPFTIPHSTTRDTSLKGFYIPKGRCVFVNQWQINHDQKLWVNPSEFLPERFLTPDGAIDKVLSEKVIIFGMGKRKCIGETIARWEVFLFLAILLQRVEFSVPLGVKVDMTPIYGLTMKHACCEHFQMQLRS
T1 sequence (P05177 whole entry): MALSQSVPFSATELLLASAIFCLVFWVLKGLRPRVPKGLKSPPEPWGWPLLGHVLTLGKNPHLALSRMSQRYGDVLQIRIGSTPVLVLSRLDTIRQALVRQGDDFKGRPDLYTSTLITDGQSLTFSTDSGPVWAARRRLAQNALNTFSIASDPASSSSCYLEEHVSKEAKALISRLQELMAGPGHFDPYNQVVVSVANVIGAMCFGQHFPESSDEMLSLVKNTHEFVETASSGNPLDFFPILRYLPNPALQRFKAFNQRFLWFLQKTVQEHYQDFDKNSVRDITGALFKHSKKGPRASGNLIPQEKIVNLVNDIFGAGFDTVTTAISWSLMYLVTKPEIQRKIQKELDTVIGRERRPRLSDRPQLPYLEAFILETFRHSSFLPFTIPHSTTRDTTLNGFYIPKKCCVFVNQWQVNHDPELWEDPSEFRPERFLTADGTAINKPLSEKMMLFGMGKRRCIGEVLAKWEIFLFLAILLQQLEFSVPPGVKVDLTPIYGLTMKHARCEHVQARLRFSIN

[8] = tested on: Salmonella typhimurium; assay: Mutagenic activity in Salmonella typhimurium TA100 at 1667 ug/plate in absence of liver S9 fraction; format: toxicity, organism-based; conditions: salmonella enterica subsp. enterica serovar typhimurium
[9] = tested on: Salmonella typhimurium; assay: Mutagenic activity in Salmonella typhimurium TA100 at 1667 ug/plate in presence of liver S9 fraction; format: toxicity, organism-based; conditions: salmonella enterica subsp. enterica serovar typhimurium
[10] = Oral bioavailability in rat at 5 mg/kg; format: ADME, organism-based; conditions: in vivo
[11] = tested on: Caco-2; assay: Permeability of the compound in human Caco2 cells; format: ADME, cell-based
[12] = tested on: Salmonella typhimurium; assay: Mutagenic activity in Salmonella typhimurium TA98 at 1667 ug/plate in absence of liver S9 fraction; format: toxicity, organism-based; conditions: salmonella enterica subsp. enterica serovar typhimurium
[13] = Clearance in rat at 1 mg/kg, iv and 5 mg/kg, po; format: ADME, organism-based; conditions: in vivo
[14] = target: Voltage-gated inwardly rectifying potassium channel KCNH2 (Homo sapiens, UniProt Q12809); assay: Inhibition of human ERG up to 100 uM by Q-patch assay
[15] = tested on: Salmonella typhimurium; assay: Mutagenic activity in Salmonella typhimurium TA1537 at 1667 ug/plate in absence of liver S9 fraction; format: toxicity, organism-based; conditions: salmonella enterica subsp. enterica serovar typhimurium
[16] = Half life in mouse microsomes; format: ADME, Microsome
[17] = tested on: Salmonella typhimurium; assay: Mutagenic activity in Salmonella typhimurium TA1537 at 1667 ug/plate in presence of liver S9 fraction; format: toxicity, organism-based; conditions: salmonella enterica subsp. enterica serovar typhimurium
[18] = Half life in human microsomes; format: ADME, Microsome
[19] = target: Phosphatidylinositol 4,5-bisphosphate 3-kinase catalytic subunit gamma isoform (Homo sapiens, UniProt P48736); assay: Inhibition of PI3Kgamma assessed as inhibition of C5a-induced AKT phosphorylation at Ser473 by cell based assay
[20] = target: Cytochrome P450 3A4 (Homo sapiens, UniProt P08684); assay: Inhibition of CYP3A4 up to 25 uM; format: ADME
[21] = target: Cytochrome P450 2C9 (Homo sapiens, UniProt P11712); assay: Inhibition of CYP2C9 up to 25 uM; format: ADME
[22] = Oral bioavailability in rat at 10 mg/kg; format: ADME, organism-based; conditions: in vivo
[23] = target: Phosphatidylinositol 4,5-bisphosphate 3-kinase catalytic subunit alpha isoform (Homo sapiens, UniProt P42336); assay: Inhibition of PI3Kalpha by high throughput chemoproteomics binding assay
[24] = species: Homo sapiens; assay: Selectivity ratio of IC50 for PI3Kbeta to IC50 for PI3Kgamma
[25] = species: Homo sapiens; assay: Selectivity ratio of IC50 for PI3Kdelta to IC50 for PI3Kgamma
[26] = target: Phosphatidylinositol 4,5-bisphosphate 3-kinase catalytic subunit beta isoform (Homo sapiens, UniProt P42338); assay: Inhibition of PI3Kbeta by high throughput chemoproteomics binding assay
[27] = Clearance in rat at 0.2 mg/kg, iv and 10 mg/kg, po; format: ADME, organism-based; conditions: in vivo

Cytochrome P450 2D6, sequence (P10635 whole entry): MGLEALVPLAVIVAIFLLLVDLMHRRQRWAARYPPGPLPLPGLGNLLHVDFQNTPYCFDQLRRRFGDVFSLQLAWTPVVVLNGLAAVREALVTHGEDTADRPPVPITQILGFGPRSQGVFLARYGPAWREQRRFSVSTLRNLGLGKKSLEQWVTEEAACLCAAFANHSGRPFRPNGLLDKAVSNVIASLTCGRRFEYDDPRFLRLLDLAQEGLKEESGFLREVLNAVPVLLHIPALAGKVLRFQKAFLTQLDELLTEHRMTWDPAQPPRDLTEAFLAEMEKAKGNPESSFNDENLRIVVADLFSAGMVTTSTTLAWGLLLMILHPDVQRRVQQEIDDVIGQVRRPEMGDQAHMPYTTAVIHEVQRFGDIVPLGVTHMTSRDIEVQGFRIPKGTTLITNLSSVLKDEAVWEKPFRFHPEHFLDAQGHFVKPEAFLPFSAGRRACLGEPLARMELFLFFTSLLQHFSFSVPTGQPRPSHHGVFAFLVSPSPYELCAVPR
Cytochrome P450 2C9, sequence (P11712 whole entry): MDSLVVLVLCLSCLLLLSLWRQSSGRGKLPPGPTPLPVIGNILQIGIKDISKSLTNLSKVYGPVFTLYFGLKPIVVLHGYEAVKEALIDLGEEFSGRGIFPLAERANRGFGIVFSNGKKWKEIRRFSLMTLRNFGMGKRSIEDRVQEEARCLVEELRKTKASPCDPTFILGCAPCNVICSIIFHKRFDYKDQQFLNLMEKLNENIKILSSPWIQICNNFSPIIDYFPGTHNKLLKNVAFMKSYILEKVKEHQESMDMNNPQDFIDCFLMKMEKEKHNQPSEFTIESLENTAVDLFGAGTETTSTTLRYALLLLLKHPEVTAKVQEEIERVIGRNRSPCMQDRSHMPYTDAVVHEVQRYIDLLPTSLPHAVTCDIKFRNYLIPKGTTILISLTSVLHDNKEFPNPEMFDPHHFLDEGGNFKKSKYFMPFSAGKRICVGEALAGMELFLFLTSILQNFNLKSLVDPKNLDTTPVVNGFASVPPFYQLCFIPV
Cytochrome P450 2C19, sequence (P33261 whole entry): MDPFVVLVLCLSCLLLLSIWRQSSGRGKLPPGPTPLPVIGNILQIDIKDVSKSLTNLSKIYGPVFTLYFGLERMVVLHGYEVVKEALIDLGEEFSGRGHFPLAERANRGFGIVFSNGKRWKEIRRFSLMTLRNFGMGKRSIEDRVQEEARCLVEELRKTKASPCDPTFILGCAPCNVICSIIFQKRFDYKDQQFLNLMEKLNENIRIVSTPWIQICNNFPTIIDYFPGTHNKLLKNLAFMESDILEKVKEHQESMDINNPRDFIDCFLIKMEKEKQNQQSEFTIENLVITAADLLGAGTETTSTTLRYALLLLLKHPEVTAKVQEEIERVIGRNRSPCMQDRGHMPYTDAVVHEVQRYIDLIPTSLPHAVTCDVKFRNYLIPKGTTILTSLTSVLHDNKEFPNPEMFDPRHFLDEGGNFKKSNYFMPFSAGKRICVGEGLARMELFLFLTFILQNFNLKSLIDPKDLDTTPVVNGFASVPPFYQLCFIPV
Cytochrome P450 3A4, sequence (P08684 whole entry): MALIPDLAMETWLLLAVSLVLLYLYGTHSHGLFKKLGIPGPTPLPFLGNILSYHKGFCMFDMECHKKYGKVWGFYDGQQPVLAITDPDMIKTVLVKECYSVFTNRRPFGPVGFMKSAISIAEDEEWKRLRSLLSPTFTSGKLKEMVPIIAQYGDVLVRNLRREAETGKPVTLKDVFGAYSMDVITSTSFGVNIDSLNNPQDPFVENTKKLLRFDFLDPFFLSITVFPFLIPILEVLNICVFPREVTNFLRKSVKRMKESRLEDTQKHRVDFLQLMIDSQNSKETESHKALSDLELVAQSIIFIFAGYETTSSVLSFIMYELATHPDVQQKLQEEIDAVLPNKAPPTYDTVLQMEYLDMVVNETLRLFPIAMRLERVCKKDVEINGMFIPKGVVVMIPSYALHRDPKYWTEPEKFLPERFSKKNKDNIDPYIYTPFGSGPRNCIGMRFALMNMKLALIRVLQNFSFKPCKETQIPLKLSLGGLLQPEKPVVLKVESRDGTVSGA
Voltage-gated inwardly rectifying potassium channel KCNH2, sequence (Q12809 whole entry): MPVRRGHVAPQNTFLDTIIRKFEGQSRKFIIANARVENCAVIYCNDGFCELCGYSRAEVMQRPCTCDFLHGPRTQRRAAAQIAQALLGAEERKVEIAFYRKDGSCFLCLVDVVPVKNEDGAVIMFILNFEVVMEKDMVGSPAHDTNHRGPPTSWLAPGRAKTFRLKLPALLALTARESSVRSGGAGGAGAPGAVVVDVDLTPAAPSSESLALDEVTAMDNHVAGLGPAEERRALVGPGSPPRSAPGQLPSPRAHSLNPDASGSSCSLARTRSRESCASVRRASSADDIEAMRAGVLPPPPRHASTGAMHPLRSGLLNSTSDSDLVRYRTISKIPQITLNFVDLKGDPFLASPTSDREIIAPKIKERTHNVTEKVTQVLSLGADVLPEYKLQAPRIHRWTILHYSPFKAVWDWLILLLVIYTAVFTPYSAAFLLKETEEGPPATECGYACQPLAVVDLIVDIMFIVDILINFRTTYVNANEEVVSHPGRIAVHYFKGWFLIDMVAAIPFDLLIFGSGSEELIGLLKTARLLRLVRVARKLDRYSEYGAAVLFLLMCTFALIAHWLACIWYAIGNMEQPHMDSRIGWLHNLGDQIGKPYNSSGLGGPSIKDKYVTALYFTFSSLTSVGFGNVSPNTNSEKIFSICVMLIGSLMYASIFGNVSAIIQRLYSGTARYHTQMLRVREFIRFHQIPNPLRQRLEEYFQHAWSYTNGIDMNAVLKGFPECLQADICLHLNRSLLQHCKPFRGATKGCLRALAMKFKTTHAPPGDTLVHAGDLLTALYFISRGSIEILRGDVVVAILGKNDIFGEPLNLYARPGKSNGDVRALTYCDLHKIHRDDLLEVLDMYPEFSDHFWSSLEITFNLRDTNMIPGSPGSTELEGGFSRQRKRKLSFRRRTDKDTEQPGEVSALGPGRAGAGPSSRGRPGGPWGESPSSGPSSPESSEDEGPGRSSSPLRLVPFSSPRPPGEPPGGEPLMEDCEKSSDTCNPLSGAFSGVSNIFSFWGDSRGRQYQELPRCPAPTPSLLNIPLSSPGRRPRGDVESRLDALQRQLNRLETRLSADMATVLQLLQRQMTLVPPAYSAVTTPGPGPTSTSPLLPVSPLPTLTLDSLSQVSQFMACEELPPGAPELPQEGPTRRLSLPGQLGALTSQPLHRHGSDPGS
Phosphatidylinositol 4,5-bisphosphate 3-kinase catalytic subunit alpha isoform, sequence (P42336 whole entry, canonical isoform): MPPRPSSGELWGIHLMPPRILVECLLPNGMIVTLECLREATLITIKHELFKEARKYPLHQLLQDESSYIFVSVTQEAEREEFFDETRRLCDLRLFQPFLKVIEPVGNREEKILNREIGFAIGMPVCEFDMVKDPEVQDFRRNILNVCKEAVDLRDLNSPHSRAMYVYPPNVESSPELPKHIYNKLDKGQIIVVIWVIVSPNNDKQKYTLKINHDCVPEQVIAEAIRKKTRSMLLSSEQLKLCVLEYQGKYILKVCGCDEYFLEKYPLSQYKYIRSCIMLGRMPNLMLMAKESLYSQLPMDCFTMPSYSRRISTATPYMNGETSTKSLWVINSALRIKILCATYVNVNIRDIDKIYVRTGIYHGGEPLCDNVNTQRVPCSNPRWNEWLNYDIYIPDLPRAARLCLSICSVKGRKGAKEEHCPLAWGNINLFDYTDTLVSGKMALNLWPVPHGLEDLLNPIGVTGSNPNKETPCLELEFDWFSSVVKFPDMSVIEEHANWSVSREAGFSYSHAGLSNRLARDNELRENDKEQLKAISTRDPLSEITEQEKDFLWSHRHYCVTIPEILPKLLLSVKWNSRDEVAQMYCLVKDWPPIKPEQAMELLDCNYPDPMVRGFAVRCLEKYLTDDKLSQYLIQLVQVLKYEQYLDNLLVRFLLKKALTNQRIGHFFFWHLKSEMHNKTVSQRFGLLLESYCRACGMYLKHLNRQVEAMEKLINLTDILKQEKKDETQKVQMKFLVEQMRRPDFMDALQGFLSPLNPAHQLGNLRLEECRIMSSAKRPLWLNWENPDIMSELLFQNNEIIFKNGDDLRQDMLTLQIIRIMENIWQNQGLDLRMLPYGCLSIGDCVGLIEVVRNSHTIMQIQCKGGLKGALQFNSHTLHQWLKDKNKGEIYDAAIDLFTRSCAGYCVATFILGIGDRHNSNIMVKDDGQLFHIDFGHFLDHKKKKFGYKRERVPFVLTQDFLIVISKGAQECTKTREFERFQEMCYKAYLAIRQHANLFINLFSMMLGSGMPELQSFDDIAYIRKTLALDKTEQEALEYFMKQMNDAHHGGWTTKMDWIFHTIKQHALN

Row | SMILES | inhibition (INH) [1] | solubility thermodynamic [2] [µg/mL] | Activity [3] | inhibition (INH) [4] | Activity [6] [%] | inhibition (INH) [7] | Activity [8] | Activity [9] | permeability [11] | Activity [12] | inhibition (INH) [14] | Activity [15] | Activity [17] | inhibition (INH) [20] | inhibition (INH) [21] | also measured
1 | CC(C)(C)NS(=O)(=O)c1cncc(-c2ccc3nc(N)nn3c2)c1 | Not Active | 9 (≈ 26 µM) | Non-toxic | Not Active | 53 | Not Active | Non-toxic | Non-toxic | permeable | Non-toxic | Not Active | Non-toxic | Non-toxic | Not Active | Not Active | half-life [5]: > 45 min; bioavailability [10]: 88%; clearance [13]: 0.69 L/h/kg; half-life [16]: > 45 min; half-life [18]: > 45 min; IC50 [19]: 2 µM
2 | CC(C)(C)NS(=O)(=O)c1cncc(-c2cc(F)c3nc(N)nn3c2)c1 | Not Active | < 5 | Non-toxic | Not Active | 38 | Not Active | Non-toxic | Non-toxic | permeable | Non-toxic | Not Active | Non-toxic | Non-toxic | Not Active | Not Active | bioavailability [22]: 37%; IC50 [23]: > 10 µM; Ratio IC50 [24]: 100; Ratio IC50 [25]: 100; IC50 [26]: 1.26 µM; clearance [27]: 0.84 L/h/kg
